Measurements reported in PubChem BioAssay AID2305 (GlaxoSmithKline (GSK), 2010).
“And” between values parts separate entries of the source, which are not always exact repeats. Equal values may be shown once.

test system: P. falciparum 3D7 growth, pLDH absorbance; experiment: P. falciparum 3D7 growth inhibition, dose response, strain 3D7 (AID 2305)

Structure (SMILES)	IC50
O=C(NCc1cccc(Br)c1)c1ccc(CNC2CCN(Cc3ccccc3)CC2)cc1	870 nM
O=C(NCC1CCC(CNCCCc2ccccc2)CC1)Nc1ccc(Cl)c(Cl)c1 (stereo not given)	770 nM
CC(C)(C)c1cc(NC(=O)c2ccc(Cl)c([N+](=O)[O-])c2)cc(C(C)(C)C)c1	1030 nM
CCn1c(-c2nonc2N)nc2c(-c3cc4ccccc4s3)ncc(C(=O)N3CCC(N)C3)c21 (stereo not given)	870 nM
O=C(N[C@@H](Cc1ccccc1)C(=O)NC1CCCCC1)c1ccc(O)c(-c2cccc(C(F)(F)F)c2)c1	810 nM
COC(=O)Cc1ccc(N)c2ccccc12	700 nM
CN(Cc1cccc(O)c1)C1CCN(c2cc(NC(=O)c3ccc(F)cc3)ccn2)CC1	960 nM
NC(=NCCCCCCCCN=C(N)Nc1ccc(Cl)cc1)Nc1ccc(Cl)cc1	590 nM
Cc1nc2nc(N)nc(N)c2c(C)c1Cc1cccs1	780 nM
CN1C(C)(C)CC(NC(=O)c2ccc(-c3nc4cc(Cl)c(Cl)cc4[nH]3)cc2)CC1(C)C	730 nM
Cc1cc(-c2cccc(CNCCc3ccc(Cl)cc3)c2)cnc1N	1100 nM
Cc1ccc2[nH]c(-c3ccc(/C=C/C(=O)NC4CCN(Cc5ccccc5)CC4)cc3)nc2c1C	630 nM
O=S(=O)(c1ccccc1OC(F)(F)F)C1C[C@H]2CC[C@@H](C1)N2S(=O)(=O)c1cccc(C(F)(F)F)c1 (stereo not given in full)	670 nM
CCCCC(=O)Nc1nonc1-c1ccc(OCC)c(OCC)c1	910 nM
Nc1nc(N)c2c(ccc3c2cnn3S(=O)(=O)N2CCCC2)n1	20 nM
CCOc1cc(C(=O)Nc2ccc3nc(N4CCCCC4)cc(C)c3c2)cc(OCC)c1OCC	820 nM
Cc1cc(N[C@@H](CC(C)C)C(=O)Nc2ccccc2)nc(NCc2ccccc2C)n1	780 nM
CN1CCN(Cc2ccc(-c3ccc4c(Nc5ccc(Oc6ccccc6)cc5)ccnc4c3)o2)CC1	180 nM
CSc1ccc2ccccc2c1CCNCCCCNCCc1c(SC)ccc2ccccc12	410 nM
CN1CCC(NCc2ccc(-c3cccc(S(=O)(=O)NCC4CCCO4)c3)cc2)CC1 (stereo not given)	940 nM
CC(C)(C)c1ccc(NC(=O)c2ccc(CN3CCCN(Cc4cccc(C#N)c4)CC3)cc2)cc1	640 nM
N#Cc1cccc(NC(=O)Nc2cccc(-c3cccc(-c4nc5ccccc5[nH]4)c3)c2)c1	90 nM
CCCCCc1cc(OC(C)=O)c2c(c1)OC(C)(C)C=C2C1=CCN(Cc2ccccc2)CC1	930 nM
COc1cc2nc(C)nc(Nc3ccc(Cc4ccccc4)cc3)c2cc1OC	730 nM
COc1cc2nc(N(C)Cc3cccc(I)c3)nc(N)c2cc1OC	860 nM

Structure (SMILES)	IC50
COc1cc(NC(=O)c2ccc3c(=O)n(Cc4ccccc4)c(=S)[nH]c3c2)cc(OC)c1OC	740 nM
FC(F)(F)c1ccc2c(NCCc3ccccc3)ccnc2c1	1270 nM
CC(=O)Nc1ccc(C(=O)N2CCN(c3ccnc4cc(Cl)ccc34)CC2)cc1	910 nM
Cc1cccc2[nH]c(-c3ccc(-c4ccc(CN5CCCC(N)C5)cc4)cc3)nc12 (stereo not given)	350 nM
O=C(Nc1ccc(Oc2ccccc2)cc1)N(Cc1ccc(-c2cccc(CN3CCNCC3)c2)cc1)C1CCN(Cc2ccccc2)CC1	880 nM
N#Cc1ccccc1C(=O)N(Cc1cncn1Cc1cccc(F)c1)CC1CC1	730 nM
O=C(Nc1ccc(Cn2ncc(N3CCNCC3)c(Cl)c2=O)cc1)Nc1ccc(-c2ccccc2)cc1	590 nM
Nc1nc(N)c2c(Sc3ccccc3)cccc2n1	650 nM
CCOC(=O)N[C@@H]1CN[C@@H](C#Cc2cc3c(Nc4ccc(OCc5cccc(F)c5)c(Cl)c4)ncnc3s2)C1	1080 nM
Cn1cncc1C(=O)Nc1cccc(-c2csc(-c3nc4ccccc4[nH]3)c2)c1	450 nM
Cc1cc(NN=Cc2ccc([N+](=O)[O-])cc2)c2ccc(F)cc2n1	890 nM
CC(C)(CNC(=O)[C@@H]1CCCN(CCOc2ccc(Cl)cc2)C1)c1nc(-c2ccc(Cl)c(O)c2)c(-c2ccncc2)[nH]1	880 nM
O=C(Nc1cccc(Cl)c1Cl)Nc1ccnc2ccccc12	750 nM
c1csc(-c2nc(NCC3CCCO3)ncc2-c2ccsc2)n1 (stereo not given)	490 nM
Cc1cc2nc(-c3cccc(C(=O)NC4CCN(Cc5ccccc5)CC4)c3)[nH]c2cc1C	830 nM
CC(Cc1ccc(NC(=O)c2ccc(CNCc3ccccc3)cc2)cc1)N(CCc1cccc(Cl)c1)C(=O)OC(C)(C)C (stereo not given)	970 nM
Cn1cnc2c(SCc3ccccc3OCc3ccccc3)ncnc21	920 nM
Clc1ccc2c(NCCc3ccccc3)ccnc2c1	490 nM
COc1cc(C(=O)NCc2nn(CCN3CCC(N4CCCC4)CC3)cc2-c2ccc(Cl)c(Cl)c2)cc(OC)c1OC	770 nM
COc1ccc2ncc(OC)c(CCN3CC[C@@H](NCc4ccc5c(n4)NC(=O)CS5)[C@H](O)C3)c2n1	830 nM
Cc1cccc2[nH]c(-c3cccc(-c4ccc(NC(=O)Nc5ccc(F)c(F)c5F)cc4)c3)nc12	170 nM
CC1CCc2c(C(=O)Nc3c(F)cc(F)cc3Br)csc2C1 (stereo not given)	750 nM
CC1(C)C=C(c2ccncc2)c2cc(Cl)ccc2O1	430 nM
O=S(=O)(c1c(Cl)cccc1Cl)N1CCCCC(c2ccc(C(F)(F)F)cc2)=N1	130 nM
COc1ccc(S(=O)(=O)NCC2CCCN(CCCCCNC(=O)/C=C/c3ccc(Cl)c(Cl)c3)C2)cc1 (stereo not given)	1060 nM

Structure (SMILES)	IC50
Clc1ccc(Cn2nc(Br)nc2Br)c(Cl)c1	440 nM
CC(C)n1ncc2c(C(=O)Nc3ccc(C#N)c(Cl)c3)cc(C3CC3)nc21	960 nM
COc1nc2c(N3CCN(CCNCc4ccc5c(n4)NC(=O)CS5)CC3)ccnc2cc1F	710 nM
CC(C)N1CCN(C(CN2CCN(CCCOc3ccc4nonc4c3)CC2)c2ccc(F)cc2)CC1 (stereo not given)	800 nM
CC(C)S(=O)(=O)N1CCN(Cc2ccc3c(c2)nc(NC(=O)c2ccsc2)n3C[C@H](O)c2ccccc2)CC1	270 nM
OC(CNCc1ccccc1OC(F)F)c1cccc(C(F)(F)F)c1 (stereo not given)	760 nM
NC(N)=Nc1ccc(C(=O)O)c(O)c1	1030 nM
Oc1ccc(CCNc2nc(N/N=C/c3ccc(Cl)cc3)nc(N3CCNCC3)n2)cc1	580 nM
O=C1Nc2cccc3c2C1(CCCCN1CCC(c2cc4ccncc4[nH]2)CC1)CCC3 (stereo not given)	790 nM and 910 nM
Cc1cc(=O)c(-c2ccc(Oc3ccc(OC(F)(F)F)cc3)cc2)c(C)[nH]1	360 nM
COC(=O)c1ccc(CC(C)NCC(O)c2ccc(Cl)c(Cl)c2)cc1 (stereo not given)	1000 nM
CN(C)CCCn1cncc1-c1ccc2ncnc(Nc3ccc(OCc4ccccc4)cc3)c2c1	520 nM
CN(CC(=O)Nc1ccc(F)c(F)c1F)c1ncnc2sc(-c3ccccc3)cc12	870 nM
CCOc1ccc(-c2nonc2NC(=O)c2ccc(Cl)cc2)cc1OCC	990 nM
O=C(Nc1ccc(-c2ccc(-c3nc4ccccc4[nH]3)s2)cc1)Nc1ccc(Cl)c(Cl)c1	160 nM
CNc1ccc(CNCc2cccc(-c3ccc(-c4nc5c(C)cccc5[nH]4)s3)c2)cc1	990 nM
COc1ccccc1COc1c(C)nc(N)nc1N	710 nM
CCN(CC)c1ccc(-c2nc3ncc(Cl)cc3[nH]2)cc1	1130 nM
O=C1COc2ccccc2N1C/C=C(\CN1CCC(c2ccccc2)CC1)c1cc(Cl)cc(Cl)c1	210 nM
COc1ccc(-c2c(-c3ccc(OCc4ccccc4)cc3O)n[nH]c2C(F)(F)F)cc1	1170 nM
N#Cc1cc([N+](=O)[O-])ccc1-n1nc(-c2cccc(Cl)c2)n(CC2CCCO2)c1=S (stereo not given)	910 nM
Cc1cc(O)c(-c2cc(C(=O)Nc3cccnc3)[nH]n2)cc1C	770 nM
CCCOc1ccc(C=C(CC(=O)O)c2nc3ccccc3s2)cc1OCC	550 nM
O=C(Cn1c(CCc2cccc(F)c2F)nc(=O)c2ccccc21)N(CCCN1CCCC1)Cc1ccc(-c2ccc(C(F)(F)F)cc2)cc1	940 nM
Nc1nc2ncn(COC(COCc3ccccc3)COCc3ccccc3)c2c(=O)[nH]1 (tested in a mixture with another compound)	710 nM

Structure (SMILES)	IC50
COc1ccc2nccc([C@@H](O)CN3CCC(NC(=O)C(c4cccs4)N4CCN(c5ccc(F)cc5)CC4)CC3)c2c1 (stereo not given in full)	820 nM
Cc1cccc2[nH]c(-c3cccc(-c4cccc(NC(=O)c5cnccc5C(F)(F)F)c4)c3)nc12	660 nM
CCCCc1nc2nc(N)nc(N)c2cc1CCC	310 nM
Cc1noc(C)c1-c1ccc(C(=C2CCCCCCC2)c2ccc(O)cc2)cc1	1050 nM
CC(C)(C)C(=O)Oc1ccc(CC2NCCc3cc(OC(=O)C(C)(C)C)c(OC(=O)C(C)(C)C)cc32)cc1OC(=O)C(C)(C)C (stereo not given)	420 nM
CC(C)(C)c1ccc(CN(C[C@@H](O)CNS(=O)(=O)c2cc(Cl)cc(Cl)c2)C(C)(C)C)cc1	930 nM
CC(C)COc1ccc(Cl)cc1Cc1ccc(-c2nc3cc(F)c(F)cc3[nH]2)o1	890 nM
CC(C)NCc1ccc(-c2cccc(NC(=O)c3ccc(F)cc3)c2)cc1	880 nM
CC(C)NCc1cccc(-c2ccc(-c3nc4ccccc4[nH]3)cc2)c1	760 nM
Cc1nc(-c2nc(N3CCC(O)CC3)ncc2-c2ccsc2)sc1C	940 nM
COc1ccc2ncc(F)c([C@@H](O)CN3CCC(NCc4cc(C#N)c5c(c4)CCO5)CC3)c2n1	890 nM
O=C(Nc1cccc(CN2CCCN(CCc3ccccc3)CC2)c1)c1cc2ccccc2s1	1130 nM
Cc1cccc(C)c1OC(=O)CSc1nnc(-c2ccccc2O)o1	880 nM
CCC(C)(C)c1ccc(Oc2ccc(NC(=O)Nc3ccc(Cl)c(Cl)c3)cc2)cc1	700 nM
COc1cc2nc(C)nc(Nc3cccc(Br)c3)c2cc1OC	360 nM
CN1CCC(c2csc3ccc(NC(=O)Nc4ccc(-c5ccncc5)c5ccccc45)cc23)CC1	1020 nM
CCn1c(-c2nonc2N)nc2c(-c3cccc(NC(=O)Nc4ccc(C(F)(F)F)cc4)c3)ncc(OCCCN)c21	1050 nM
CCc1cc2c(Sc3nnc(N)s3)ncnc2s1	660 nM
CC(C)Nc1nc(NCCc2cnc[nH]2)nc(NCc2ccc(Cl)c(Cl)c2)n1	960 nM
O=C(/C=C/c1ccc(Cl)c(Cl)c1)NCCCCCN1CCCN(C(=O)Nc2cc(F)cc(F)c2)CC1	770 nM
Cn1c(Nc2cc(C(C)(C)C)on2)nc2cc(Nc3ccnc(Nc4cccc(CS(C)(=O)=O)c4)n3)ccc21	570 nM
CN1CCCN(c2ccnc3cc4c(cc23)N(C(=O)c2ccc(Cl)cc2)CC4)CC1	790 nM
COc1ccc(C2CC(c3cccs3)=NN2C(=O)CNc2cccc(C#N)c2)cc1OC (stereo not given)	1450 nM
CN(C)C(CNC(=O)c1cc(-c2ccncc2)c(-c2ccc(NC(=O)Nc3cccc(Cl)c3)cc2)o1)c1ccccc1 (stereo not given)	180 nM
Cc1cc(-c2ccc(NC(=O)N3CCc4cc(Br)c(N5CCN(C)CC5)cc43)cc2)ccc1C#N	880 nM
